Source: article PMC6017115, “Inhibitory Effect of Sauchinone on UDP-Glucuronosyltransferase (UGT) 2B7 Activity” (Molecules : A Journal of Synthetic Chemistry and Natural …, 2018)
Marks after values point to notes of the source that are not given here.

Experiments:
UGT1A6 = biological target: T1, UGT1A6 (Homo sapiens, UniProt P19224); assay: Inhibition of UGT1A6 (serotonin glucuronidation) in human liver microsomes; format: in vitro ADME
T1 construct: tissue Corning Life Sciences 452156; host or cells: pooled human liver microsomes
T1 sequence (P19224 27-532): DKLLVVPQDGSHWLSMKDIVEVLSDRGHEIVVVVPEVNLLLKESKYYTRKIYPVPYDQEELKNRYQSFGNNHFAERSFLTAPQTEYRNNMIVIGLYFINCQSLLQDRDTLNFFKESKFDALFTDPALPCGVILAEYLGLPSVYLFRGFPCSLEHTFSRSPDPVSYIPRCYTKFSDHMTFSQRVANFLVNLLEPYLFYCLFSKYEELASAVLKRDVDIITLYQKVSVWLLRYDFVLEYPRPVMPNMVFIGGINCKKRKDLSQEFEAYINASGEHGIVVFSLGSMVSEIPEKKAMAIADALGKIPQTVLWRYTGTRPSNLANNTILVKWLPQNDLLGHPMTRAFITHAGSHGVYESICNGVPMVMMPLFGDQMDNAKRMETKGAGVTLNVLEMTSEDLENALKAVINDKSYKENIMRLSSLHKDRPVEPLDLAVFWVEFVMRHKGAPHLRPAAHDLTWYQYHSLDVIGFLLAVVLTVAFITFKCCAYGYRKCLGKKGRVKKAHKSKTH
Procedure: (§1) Their IC50 values were compared to that of sauchinone. […] UGT-mediated activities in the presence of sauchinone as an inhibitor were expressed as percentages of corresponding control values (in absence of sauchinone). From percentages of control activity versus inhibitor concentrations, a sigmoid shaped curve was fitted to the data and IC50 as an enzyme inhibition parameter was calculated by fitting the Hill equation to the data using GraphPad Prism 5 (GraphPad Software Inc., San Diego, CA, USA).

UGT1A1 = biological target: T2, UGT1A1 (Homo sapiens, UniProt P22309); assay: Inhibition of UGT1A1 (β-estradiol glucuronidation) in human liver microsomes; format: in vitro ADME; details: substrate 10 μM β-estradiol, mean (minimum–maximum)
T2 construct: The reaction mixture containing 0.25 mg/mL protein of HLM; tissue Corning Life Sciences 452156; host or cells: pooled human liver microsomes, 50 donors
T2 sequence (P22309 26-533): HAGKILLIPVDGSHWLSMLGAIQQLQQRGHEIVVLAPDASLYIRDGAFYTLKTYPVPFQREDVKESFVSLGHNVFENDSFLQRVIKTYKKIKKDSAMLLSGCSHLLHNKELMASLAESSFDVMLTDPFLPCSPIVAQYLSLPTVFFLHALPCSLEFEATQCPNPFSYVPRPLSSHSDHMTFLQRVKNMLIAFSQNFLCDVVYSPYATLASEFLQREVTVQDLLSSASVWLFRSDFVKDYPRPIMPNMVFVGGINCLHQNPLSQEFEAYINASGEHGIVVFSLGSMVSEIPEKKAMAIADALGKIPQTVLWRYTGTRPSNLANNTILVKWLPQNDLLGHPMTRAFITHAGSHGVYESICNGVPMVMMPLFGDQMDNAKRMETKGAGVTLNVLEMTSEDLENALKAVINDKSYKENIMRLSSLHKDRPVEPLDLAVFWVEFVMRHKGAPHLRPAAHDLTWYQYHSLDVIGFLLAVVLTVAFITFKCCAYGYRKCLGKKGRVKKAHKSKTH
Procedure: as §1

UGT1A4 = biological target: T3, UGT1A4 (Homo sapiens, UniProt P22310); assay: Inhibition of UGT1A4 (trifluoperazine glucuronidation) in human liver microsomes; format: in vitro ADME
T3 construct: The reaction mixture containing 0.25 mg/mL protein of HLM; tissue Corning Life Sciences 452156; host or cells: pooled human liver microsomes, 50 donors
T3 sequence (P22310 29-534): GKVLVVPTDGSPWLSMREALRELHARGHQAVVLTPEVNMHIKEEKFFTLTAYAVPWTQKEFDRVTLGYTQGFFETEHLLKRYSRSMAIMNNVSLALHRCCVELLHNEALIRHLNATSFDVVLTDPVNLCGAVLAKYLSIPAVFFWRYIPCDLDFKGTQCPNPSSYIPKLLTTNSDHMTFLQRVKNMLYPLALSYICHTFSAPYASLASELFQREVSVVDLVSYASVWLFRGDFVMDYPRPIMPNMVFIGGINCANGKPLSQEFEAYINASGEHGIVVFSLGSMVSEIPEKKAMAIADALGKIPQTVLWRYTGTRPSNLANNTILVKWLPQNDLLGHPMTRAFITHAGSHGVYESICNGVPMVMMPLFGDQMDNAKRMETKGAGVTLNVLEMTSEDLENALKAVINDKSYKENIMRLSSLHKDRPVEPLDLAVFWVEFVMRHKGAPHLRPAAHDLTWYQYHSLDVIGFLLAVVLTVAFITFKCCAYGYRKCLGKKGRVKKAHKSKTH
Procedure: as §1

UGT1A9 = biological target: T4, UGT1A9 (Homo sapiens, UniProt O60656); assay: Inhibition of UGT1A9 (propofol glucuronidation) in human liver microsomes; format: in vitro ADME; details: substrate 100 μM propofol, mean (minimum–maximum)
T4 construct: The reaction mixture containing 0.25 mg/mL protein of HLM; tissue Corning Life Sciences 452156; host or cells: pooled human liver microsomes, 50 donors
T4 sequence (O60656 26-530): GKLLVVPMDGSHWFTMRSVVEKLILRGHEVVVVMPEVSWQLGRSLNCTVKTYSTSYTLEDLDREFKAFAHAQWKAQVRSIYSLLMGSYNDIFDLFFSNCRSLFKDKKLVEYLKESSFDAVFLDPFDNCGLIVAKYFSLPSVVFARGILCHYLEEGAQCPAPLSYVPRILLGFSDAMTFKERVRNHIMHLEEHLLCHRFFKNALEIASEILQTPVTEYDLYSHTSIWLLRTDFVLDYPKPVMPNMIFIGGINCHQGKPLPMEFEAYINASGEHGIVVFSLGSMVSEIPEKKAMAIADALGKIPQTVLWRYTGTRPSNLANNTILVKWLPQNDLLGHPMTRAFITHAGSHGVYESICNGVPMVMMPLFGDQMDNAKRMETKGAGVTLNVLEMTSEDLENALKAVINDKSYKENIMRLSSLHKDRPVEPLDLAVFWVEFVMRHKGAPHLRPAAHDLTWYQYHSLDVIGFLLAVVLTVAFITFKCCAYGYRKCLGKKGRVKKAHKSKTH
Procedure: as §1

UGT2B7 = biological target: T5, UGT2B7 (Homo sapiens, UniProt P16662); assay: Enzyme kinetic assay (Ki, Dixon plot) of UGT2B7-mediated zidovudine glucuronidation; details: human, pH 7.6
T5 sequence (P16662 24-529): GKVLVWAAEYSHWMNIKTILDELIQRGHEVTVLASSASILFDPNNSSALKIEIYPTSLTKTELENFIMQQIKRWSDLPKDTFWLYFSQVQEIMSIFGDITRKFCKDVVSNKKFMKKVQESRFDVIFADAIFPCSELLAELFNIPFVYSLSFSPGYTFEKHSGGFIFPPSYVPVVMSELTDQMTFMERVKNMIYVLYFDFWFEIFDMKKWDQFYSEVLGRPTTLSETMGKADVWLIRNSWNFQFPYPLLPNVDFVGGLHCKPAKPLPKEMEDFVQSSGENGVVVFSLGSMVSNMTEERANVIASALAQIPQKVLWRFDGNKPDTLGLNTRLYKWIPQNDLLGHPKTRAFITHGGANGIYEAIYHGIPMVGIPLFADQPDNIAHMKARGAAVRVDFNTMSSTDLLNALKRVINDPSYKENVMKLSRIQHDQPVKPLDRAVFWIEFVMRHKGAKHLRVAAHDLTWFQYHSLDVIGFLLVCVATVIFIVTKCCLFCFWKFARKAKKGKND
Procedure: Inhibitory effects of sauchinone on UGT1A1, 1A3, 1A4, 1A6, 1A9, and 2B7 activities were evaluated using HLMs. […] Spiked volume of UGT cocktail set was 1% (v/v) of total volume of mixture. […] The reaction was initiated by adding 5 mM UDPGA to a final volume of 150 μL and incubated at 37 °C for 15 or 60 min in a thermomixer at 500 rpm. Each reaction was stopped by adding 150 μL of ice-cold methanol containing 50 ng/mL IS. These mixtures were then centrifuged (12,000 rpm for 10 min at 4 °C) and 5 μL of the supernatant was injected into a UPLC-MS/MS system. […] Their IC50 values were compared to that of sauchinone. All inhibitors were dissolved in methanol (except for hecogenin, which was dissolved in dimethyl sulfoxide) and serially diluted to the required concentrations using the same solutions. The final concentration of organic solvent of inhibitors was 1% (v/v). All studies were performed in triplicate and mean values were used in the analysis. The half maximal inhibition constant (IC50) of sauchinone on UGT isoforms was estimated using GraphPad program.
Based on IC50 values, Ki values of sauchinone for UGT1A6 and 2B7 were determined. Concentrations of 0–200 μM of sauchinone were used. Other procedures were similar to those mentioned above in the study of reversible inhibitory effects of sauchinone. Inhibitory characteristics of sauchinone were initially estimated by nonlinear least squares regression analysis and Ki values were determined by Dixon plots.

[1] = Pharmacokinetic study of zidovudine with or without sauchinone in mice; details: for CLNR / AUC(0-t) / AUC / clearance / CL renal / MRT / Vd / half-life / Ae0–24 h / GI24 h: mean ± SD, n = 11; for AUC(0-t) / AUC / clearance / CL renal / MRT / Vd / half-life: mouse, plasma, iv, 15 mg/kg; for AUC(0-t): AUC480 min; for AUC: time zero to infinity; for clearance: CL; for CL renal: CLR; for Vd: Vss; for half-life: t1/2, mice; for Ae0–24 h: zidovudine excreted into urine for 24 h; for GI24 h: zidovudine remaining or excreted in GI at 24 h
[2] = substrate: NCCc1c[nH]c2ccc(O)cc12; assay: purified protein, by the assay type; details: other: without sauchinone; pH 7.6; 37.0 °C
[3] = mice, zidovudine 15 mg/kg iv with oral 100 mg/kg sauchinone
[4] = mice, zidovudine 15 mg/kg iv with vehicle
[5] = mice, zidovudine 15 mg/kg iv, oral 100 mg/kg sauchinone

In the case of `Oc1cccc2ccccc12` [1-Naphthol], the IC50 (UGT1A6) is reported as 35.2 µM.

`O=c1cc(-c2ccccc2)oc2cc(O)cc(O)c12` [Chrysin] gave an IC50 (UGT1A1) of 28.3 µM.

`C[C@@H]1CC[C@@]2(OC1)O[C@H]1C[C@H]3[C@@H]4CC[C@H]5C[C@@H](O)CC[C@]5(C)[C@H]4CC(=O)[C@]3(C)[C@H]1[C@@H]2C` [Hecogenin] gave an IC50 (UGT1A4) of 3.99 µM.

Molecule `O=C(O)c1cccnc1Nc1cccc(C(F)(F)F)c1` [Niflumic acid] has an IC50 (UGT1A9) of 0.755 µM.

In the case of `Cc1cn([C@H]2C[C@H](N=[N+]=[N-])[C@@H](CO)O2)c(=O)[nH]c1=O` [zidovudine], the Km (UGT2B7) is reported as 85 µM, the CLNR [1, 3] is reported as 24.5 ± 9.31 ^a mL/min/kg and the CLNR [1, 4] is reported as 34.8 ± 10.5 mL/min/kg. For the same molecule, the “decrease of CL of zidovudine with sauchinone compared to without” value [1, 5] was 29.3%, the “decrease of CLNR of zidovudine with sauchinone compared to without” value [1, 5] was 29.6% and the “increase of AUC480 min of zidovudine with sauchinone compared to without” value [1, 5] was 53.1%. For the same molecule, the AUC(0-t) [1, 3] was 5.73 µg·h/mL, the AUC(0-t) [1, 4] was 3.78 µg·h/mL and the AUC [1, 3] was 5.82 µg·h/mL. It also gave an AUC [1, 4] of 3.8 µg·h/mL, a clearance [1, 3] of 2.92 ± 0.966 L/h/kg and a clearance [1, 4] of 4.12 ± 1.12 L/h/kg. For the same molecule, the CL renal [1, 3] was 1.44 ± 0.481 L/h/kg, the CL renal [1, 4] was 2.04 ± 0.672 L/h/kg and the MRT [1, 3] was 0.725 h. The MRT [1, 4] was 0.93 h, the Vd [1, 3] was 2.1 ± 1.23 L/kg and the Vd [1, 4] was 3.31 ± 1.67 L/kg. For the same molecule, the half-life ([1]; zidovudine 15 mg/kg iv with oral 100 mg/kg sauchinone) was 2.97 ± 1.55 h, the half-life ([1]; zidovudine 15 mg/kg iv with vehicle) was 3.45 ± 2.22 h and the “Ae0–24 h” value [1, 3] was 50.2 ± 8.41 % of dose. The “Ae0–24 h” value [1, 4] was 50.3 ± 8.01 % of dose, the GI24 h [1, 3] was 0.321 ± 0.646 % of dose and the GI24 h [1, 4] was 0.672 ± 0.999 % of dose.

B1: UGT1A6 (Homo sapiens) (protein)
chain: T1 sequence (P19224 27-532)
In the case of B1, the Km [2] is reported as 126 µM and the Vmax [2] is reported as 174 μM/min/mg protein.
